Laboratory results as given in patent publication US20180147189A1, “ADMINISTRATION REGIMEN FOR THERAPEUTIC AGENTS FOR ATAXIA IN SPINOCEREBELLAR DEGENERATION” (KISSEI PHARMACEUTICAL CO., LTD., priority 2015, published 2018).
Values belong to the compound of their own block, whether it stands above or below them.

Legend:
ataxia in SCD = conditions: NPL 3, cited from earlier work
animal models = conditions: PTL 2; cited from earlier work
[1] = Pharmacokinetic study in humans, single dose on an empty stomach; type: in vivo, human; conditions: single dose 0.1-10 mg, healthy adult males
Experimental: Rovatirelin trihydrate (0.1, 0.3, 1, 2.5, 5 or 10 mg) or placebo was administered to 48 healthy adult males (6 individuals per group and 12 on placebo) as a single dose on an empty stomach. Analysis of the pharmacokinetics of intact rovatirelin under this condition indicated linearity of Cmax (maximum plasma concentration), AUC0-∞ (area under the plasma concentration curve vs. time curve from time 0 to infinity), and Ae0-48 (cumulative amount excreted into urine from time 0-48 hours) of rovatirelin in a dosage range from 0.1-10 mg.

[2] = PTL 2; cited from earlier work
[3] = test system: pure cerebellar SCD patients; experiment: Long-term extension study of pure cerebellar SCD patients; type: in vivo, human; conditions: 2.4 mg once daily, at 52 weeks
Experimental: For patients who completed the phase III study (Example 4), rovatirelin trihydrate was administered at 1.6 or 2.4 mg once daily for 52 weeks (open-label parallel-group comparative study).
The same items as those listed in Example 4 were used as efficacy and safety endpoints, and deterioration rates (i.e., the number of deteriorated patients/total number of patients) in the SARA total score and SARA scores for each items were calculated in a similar manner.

[4] = Repeated dose study in healthy adult males; type: in vivo, human; conditions: for transition of FT3 value (serum concentration, mean) / transition of FT4 values (serum concentration, mean): oral, 9 days
Experimental: To 50 healthy adult males (8 individuals per group and 10 on placebo), rovatirelin trihydrate (0.25, 0.5 or 1.0 mg) or placebo was orally administered once daily or rovatirelin trihydrate (0.25 or 0.5 mg) or placebo was orally administered twice daily after breakfast and after dinner, for 9 consecutive days.
Serum concentrations (mean) of FT3, FT4, TSH, and prolactin (PRL), and adverse events and the like were evaluated.

SCD patients [5] = experiment: Study of switch from conventional drugs to rovatirelin in SCD patients; type: in vivo, human; conditions: switch group from taltirelin, 24 weeks, P<0.01
Experimental: To the patients were orally administered rovatirelin trihydrate at 1.6 or 2.4 mg once daily after breakfast for 24 weeks (randomized, open-label parallel-group comparative study).
A 4-week pre-observation period was set prior to the start of the treatment period. For patients who received a conventional SCD agent taltirelin or protirelin agent (TRH agent) before the pre-observation period, the medication was continued until the end of the pre-observation period without changing its dosage and administration.
The same items as those listed in Example 4 were used as efficacy and safety endpoints.

[6] = test system: patients with pure cerebellar SCD; experiment: Clinical trial of pure cerebellar SCD patients (Phase III study); type: in vivo, human
Experimental: Rovatirelin trihydrate at a dose of 1.6 or 2.4 mg or placebo was orally administered to patients with pure cerebellar SCD (SCA6, SCA31 or cortical cerebellar atrophy (CCA)) with ataxia once daily after breakfast for 28 weeks (double-blind; 124 patients in the 1.6 mg group, 122 patients in the 2.4 mg group, and 123 patients in the placebo group).
To appropriately assess the efficacy of rovatirelin trihydrate on ataxia, this study was performed on pure cerebellar SCD patients with a SARA gait score between 2 and 6 and a SARA total score of ≥6.
The same items as those listed in Example 3 were used as efficacy and safety endpoints. SCD is a disease that automatically becomes worse; therefore it is important in the treatment to retard the deterioration. Accordingly, patients with a […] in their SARA score compared with the time in week 0 were defined as deteriorated patients, and deterioration rates (i.e., the number of deteriorated patients/total number of patients) in the SARA total score and SARA scores for each item were calculated.

SCD patients [7] = experiment: Clinical trial of SCD patients (Phase II study); type: in vivo, human; conditions: for amount of change in the SARA total score: 24 weeks, pure cerebellar SCD patients, mean
Experimental: Rovatirelin trihydrate (0.4, 0.8, 1.6 or 3.2 mg) or placebo was orally administered to 225 SCD patients once daily after breakfast for 24 weeks (double-blind).
The efficacy endpoint was the amount of change in the SARA total score calculated by, as an example, the SARA total score at the final assessment in the treatment period (the final observed value in the treatment period) minus that at the end of the pre-observation period as an example. The safety endpoints were, as an example, the occurrence of adverse events and side effects, physiological examinations (e.g., blood pressure and pulses), and endocrinologic examinations (e.g., FT3 and FT4).
It is noted that the SARA total score was calculated by a sum of the SARA scores for each item ((i.e., gait (score 0-8), stance (score 0-6), sitting (score 0-4), speech disturbance (score 0-6), finger chase (score 0-4), nose-finger test (score 0-4), fast alternating hand movements (score 0-4), and heel-shin slide (score 0-4) (the score 0 is normal for all items)).

[8] = 0.5 mg once daily (0.5 mg/qd) compared with 0.25 mg twice daily
[9] = 1 mg once daily (1 mg/qd) compared with 0.5 mg twice daily
[10] = 2.4 mg group, elderly aged ≥65 years

Structure (SMILES): CN1C(=O)C[C@@H](C(=O)N[C@@H](Cc2cnc[nH]2)C(=O)N2CCC[C@H]2C(N)=O)NC1=O.O.O.O.O [Taltirelin hydrate]
- total improvement level (subjective assessment of a physician) versus placebo (ataxia in SCD; after 28 weeks, ataxia in SCD): significant difference
- individual symptoms (symptom of ataxia) (ataxia in SCD; phase III double-blind comparative study): no significant improvement was observed

- dose proportionality of AUC0-∞ [1]: linearity
- dose proportionality of Ae0-48 (cumulative amount excreted into urine 0-48 hours) [1]: linearity
- dose proportionality of Cmax (maximum plasma concentration) [1]: linearity
Structure (SMILES): C[C@@H]1OC(=O)N[C@@H]1C(=O)N[C@@H](Cc1cscn1)C(=O)N1CCC[C@H]1C [rovatirelin, (4S,5S)-5-methyl-N-{(2S)-1-[(2R)-2-methylpyrrolidin-1-yl]-1-oxo-3-(1,3-thiazol-4-yl)propan-2-yl}-2-oxo-1,3-oxazolidine-4-carboxamide]
- effects in improving ataxia relative to taltirelin (animal models): at least 30 times
- bioavailability (BA) [2]: high

- transition of FT3 value (serum concentration, mean) [4, 8]: proceeded at lower levels as a whole
- FT4 concentrations versus reference limit ([4]; 0.5 mg twice daily, Day 5 and Day 9, reference limits 0.9 and 1.7 ng/dL): above the reference limit
- transition of FT3 value (serum concentration, mean) [4, 9]: proceeded at lower levels as a whole
- transition of FT4 values (serum concentration, mean) [4, 9]: proceeded at lower levels as a whole
- discontinuation rate ([6]; 1.6 mg group (placebo 4.9%)): 16.0%
- discontinuation rate ([6]; 2.4 mg group (placebo 4.9%)): 19.8%
- discontinuation rate (SCD patients [7]; 1.6 mg group (placebo 15.6%)): 17.8%
- discontinuation rate (SCD patients [7]; 3.2 mg group (placebo 15.6%)): 28.9%
Structure (SMILES): C[C@@H]1OC(=O)N[C@@H]1C(=O)N[C@@H](Cc1cscn1)C(=O)N1CCC[C@H]1C [rovatirelin trihydrate]
- deterioration rate for items (gait) [3]: 9.9%
- deterioration rate of the SARA total score [3]: 21.0%
- amount of change in the SARA total score ([3]; 81 patients who completed): −1.41
- transition of FT4 values (serum concentration, mean) [4, 8]: comparable for both groups or the transition for the 0.5 mg/qd group proceeded at slightly lower levels
- amount of change in the SARA total score at an endpoint (SCD patients [5]; 1.6 mg once daily): −1.34
- amount of change in the SARA total score at an endpoint (SCD patients [5]; 2.4 mg once daily): −1.35
- FT3 and FT4 concentrations versus normal range ([6]; 1.6 mg and 2.4 mg groups, 4 weeks after the start of administration, no further increase subsequently): reached the upper limit of the normal range
- SARA gait and stance scores compared with the placebo group ([6]; 1.6 mg group): no improvement was observed
- SARA total score compared with the placebo group ([6]; 1.6 mg group): no improvement was observed
- amount of change in the SARA total score ([6]; 1.6 mg once daily, 28 weeks, compared with pre-dose score): −0.75
- deterioration rate of the SARA total score ([6]; 2.4 mg group (placebo 30.9%)): 23.8%
- amount of change in the SARA gait score [6, 10]: −0.19
- amount of change in the SARA stance score [6, 10]: −0.54
- amount of change in the SARA total score [6, 10]: −1.39
- amount of change in the SARA total score ([6]; 2.4 mg once daily, 28 weeks, compared with pre-dose score): −1.22
- amount of change in the SARA total score (SCD patients [7]; 0.4 mg once daily): −1.09 score
- amount of change in the SARA total score (SCD patients [7]; 0.8 mg once daily): −1.27 score
- amount of change in the SARA total score (SCD patients [7]; 1.6 mg once daily): −1.58 score
- FT3 and FT4 concentrations versus upper reference limits (SCD patients [7]; 3.2 mg once daily): slightly above the upper reference limits
- amount of change in the SARA total score (SCD patients [7]; 3.2 mg once daily): −1.65 score
- side effect rate compared with placebo (Fisher's exact test) (SCD patients [7]; 3.2 mg once daily, P=0.002): significantly differed
